Source: patent US5622948A, “Pyrrole pyridazine and pyridazinone anti-inflammatory agents” (Syntex (U.S.A.) Inc., priority 1994, dated 1997)

What was measured:
COX II = biological target: T1, COX II (Homo sapiens, UniProt P35354); assay: radiometric assay, COX II inhibition (human recombinant, baculovirus expressed, partially purified); assay type: biochemical; parameters: A 1.8 Kb DNA fragment containing the coding region of human COX II was generated by PCR; made in house; host or cells: Sf9 insect cells, baculovirus; conditions: radiometric assay, human recombinant baculovirus expressed enzyme; read-out: COX II IC50 (Table 2)
T1 sequence (P35354 18-604): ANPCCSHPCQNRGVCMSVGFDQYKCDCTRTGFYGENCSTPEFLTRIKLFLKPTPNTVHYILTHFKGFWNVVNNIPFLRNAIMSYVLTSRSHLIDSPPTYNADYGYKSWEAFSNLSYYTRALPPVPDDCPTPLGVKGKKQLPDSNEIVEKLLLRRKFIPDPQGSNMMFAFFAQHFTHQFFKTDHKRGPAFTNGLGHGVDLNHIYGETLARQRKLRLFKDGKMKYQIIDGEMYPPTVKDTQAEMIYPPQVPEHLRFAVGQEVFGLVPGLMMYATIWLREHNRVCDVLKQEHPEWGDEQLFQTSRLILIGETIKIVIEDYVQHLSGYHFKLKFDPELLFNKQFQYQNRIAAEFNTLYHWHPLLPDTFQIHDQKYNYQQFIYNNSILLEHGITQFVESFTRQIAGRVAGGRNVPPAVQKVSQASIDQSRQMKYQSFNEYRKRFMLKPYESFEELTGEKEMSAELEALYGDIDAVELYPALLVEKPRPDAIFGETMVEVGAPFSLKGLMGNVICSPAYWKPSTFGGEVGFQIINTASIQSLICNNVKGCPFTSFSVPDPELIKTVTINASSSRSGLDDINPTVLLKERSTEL
Description: (§1) Human prostaglandin G/H synthase I and II ("COX I" and "COX II") were expressed in the baculovirus expression system and purified to high levels.
(§2) As described above, human recombinant COX I and COX II were cloned and expressed in a baculovirus system. Partially purified COX I and COX II enzymes were used for screening compounds for their ability to inhibit COX I and COX II activity, as described below.
(§3) Compound (16), in 2 μl DMSO, and control samples (carrier vehicles only) were mixed with COX I or COX II samples (e.g. fractions from the chromatography columns) in polypropylene tubes and preincubated with 2 mM phenol for 5 minutes and then with 1 μM hematin for an additional 5 minutes. The 150 μl reaction mixture consisted of 50 mM Tris --HCl, pH 7.9, 2 mM EDTA, 10% glycerol, 200 μM phenol, 1 μM hematin, 1-25 μl sample and 20 μM 1-[^14 C] arachidonate (80.000-100.000 cpm/tube). After 45 seconds at room temperature, the reaction was terminated by adding 200 μl of 2N HCl and 750 μl water. An aliquot (950 μl) of the reaction mixture was loaded onto a 1 ml C~ Sep-Pak (J. T. Baker, Phillipsburg, N.J.) which had been previously washed with 2-3 ml methanol and equilibrated with 5-6 ml distilled water. Oxygenated products were quantitatively eluted with 3 ml of acetonitrile, H2 O and acetic acid (50:50:0.1, v/v) and the radioactivity in the eluate determined in a scintillation counter.
(§4) Human recombinant 10 min incubation with Compound (16)
(§5) baculovirus 45 sec incubation with 20 μM AA
(§6) partially purified Separation of radioactive products

COX I = COX I (Homo sapiens, UniProt P23219); assay: radiometric assay, COX I inhibition (human recombinant, baculovirus expressed, partially purified); assay type: biochemical; parameters: A 2 Kb fragment containing the coding region of COX I; made in house; host or cells: Sf9 insect cells, baculovirus (cDNA from Oxford Biomedical Research); conditions: radiometric assay, human recombinant baculovirus expressed enzyme; read-out: COX I IC50 (Table 2)
Description: as §1, §2, §3, §4, §5, §6

Chain of COX I (P23219 24-599): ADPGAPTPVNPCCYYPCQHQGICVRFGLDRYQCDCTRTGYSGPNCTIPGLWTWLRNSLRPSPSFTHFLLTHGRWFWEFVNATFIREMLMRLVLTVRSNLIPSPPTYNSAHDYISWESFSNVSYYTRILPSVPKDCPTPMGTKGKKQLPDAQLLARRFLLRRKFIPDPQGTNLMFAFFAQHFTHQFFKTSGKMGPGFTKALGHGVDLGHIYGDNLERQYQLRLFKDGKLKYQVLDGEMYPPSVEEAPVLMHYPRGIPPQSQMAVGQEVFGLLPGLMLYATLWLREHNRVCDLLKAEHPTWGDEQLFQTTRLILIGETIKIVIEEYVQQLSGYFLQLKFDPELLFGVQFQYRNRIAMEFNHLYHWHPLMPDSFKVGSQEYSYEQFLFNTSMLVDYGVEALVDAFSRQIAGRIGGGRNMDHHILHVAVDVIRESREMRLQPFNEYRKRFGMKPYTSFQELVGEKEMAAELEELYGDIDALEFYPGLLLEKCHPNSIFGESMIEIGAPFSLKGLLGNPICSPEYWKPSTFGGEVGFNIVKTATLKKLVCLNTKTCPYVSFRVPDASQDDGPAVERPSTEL

Compound “6-(5-benzoyl-3-chloro-4-methyl-1H-pyrrol-2-ylmethyl)-2H-pyridazin-3-one [Compound 89]” has an IC50 (COX II) of 2300 nM and an IC50 (COX I) of 8.1 µM.

In the case of `Cc1cc(C(C#N)c2ccc(=O)[nH]n2)n(C)c1C(=O)c1ccc(Cl)cc1` (stereo not shown) [Compound 9, [5-(4-chloro-benzoyl)-1,4-dimethyl-1H-pyrrol-2-yl]-(6-oxo-1,6-dihydro-pyridazin-3-yl)acetonitrile], the IC50 (COX II) is reported as 630 nM and the IC50 (COX I) is reported as > 100 µM.

`Cc1cc(C(C)c2ccc(=O)[nH]n2)n(C)c1C(=O)c1ccc(Cl)cc1` (stereo not shown) [Compound 18, 6-{1-[5-(4-chloro-benzoyl)-1,4-dimethyl-1H-pyrrol-2-yl]-ethyl}-2H-pyridazin-3-one] was tested, and the IC50 (COX II) was 1500 nM and the IC50 (COX I) was 15 µM.

Compound `Cc1c(Cl)c(Cc2ccc(=O)[nH]n2)n(C)c1C(=O)c1ccc(Cl)cc1` [Compound 24, 6-[3-chloro-5-(4-chloro-benzoyl)-1,4-dimethyl-1H-pyrrol-2-ylmethyl]-2H-pyridazin-3-one] has an IC50 (COX II) of 700 nM and an IC50 (COX I) of 440 µM.

`Cc1c(Br)c(Cc2ccc(=O)[nH]n2)n(C)c1C(=O)c1ccc(Cl)cc1` [Compound 25, 6-[3-bromo-5-(4-chloro-benzoyl)-1,4-dimethyl-1H-pyrrol-2-ylmethyl]-2H-pyridazin-3-one] gave an IC50 (COX II) of 1800 nM and an IC50 (COX I) of 277 µM.

`Cc1ccc(C(=O)c2c(C)cc(Cc3ccc(=O)[nH]n3)n2C)cc1` [Compound 30, 6-[1,4-dimethyl-5-(4-methyl-benzoyl)-1H-pyrrol-2-ylmethyl]-2H-pyridazin-3-one] gave an IC50 (COX II) of 500 nM and an IC50 (COX I) of 40 µM.

`COc1ccc(C(=O)c2c(C)cc(Cc3ccc(=O)[nH]n3)n2C)cc1` [Compound 31, 6-[1,4-dimethyl-5-(4-methoxy-benzoyl)-1-H-pyrrol-2-ylmethyl]-2H-pyridazin-3-one] gave an IC50 (COX II) of 200 nM and an IC50 (COX I) of 35 µM.

In the case of `Cc1cc(Cc2ccc(=O)[nH]n2)n(C)c1C(=O)c1ccccc1` [Compound 32, 6-[5-benzoyl-1,4-dimethyl-1H-pyrrol-2-ylmethyl]-2H-pyridazin-3-one], the IC50 (COX II) is reported as 1500 nM and the IC50 (COX I) is reported as 26.7 µM.

Compound `C=Cc1ccc(C(=O)c2c(C)cc(Cc3ccc(=O)[nH]n3)n2C)cc1` [Compound 33, 6-[1,4-dimethyl-5-(4-vinyl-benzoyl)-1H-pyrrol-2-ylmethyl]-2H-pyridazin-3-one] has an IC50 (COX II) of 440 nM and an IC50 (COX I) of 31.7 µM.

`Cc1cc(Cc2ccc(=O)[nH]n2)n(C)c1C(=O)c1ccc(Br)cc1` [Compound 35, 6-[5-(4-bromo-benzoyl)-1,4-dimethyl-1H-pyrrol-2-ylmethyl]-2H-pyridazin-3-one] showed an IC50 (COX II) of 100 nM and an IC50 (COX I) of 86 µM.

Compound `CCc1ccc(C(=O)c2c(C)cc(Cc3ccc(=O)[nH]n3)n2C)cc1` [Compound 36, 6-[1,4-dimethyl-5-(4-ethyl-benzoyl)-1H-pyrrol-2-ylmethyl]-2H-pyridazin-3-one] has an IC50 (COX II) of 400 nM and an IC50 (COX I) of 38 µM.

With `Cn1c(Cc2ccc(=O)[nH]n2)ccc1C(=O)c1ccc(C2CC2)cc1` [Compound 42, 6-[5-(4-cyclopropyl-benzoyl)-1-methyl-1H-pyrrol-2-ylmethyl]-2H-pyridazin-3-one] the IC50 (COX II) was 720 nM and the IC50 (COX I) was 82 µM.

With `CSc1ccc(C(=O)c2ccc(Cc3ccc(=O)[nH]n3)n2C)cc1` [Compound 43, 6-[1-methyl-5-(4-methylthio-benzoyl)-1H-pyrrol-2-ylmethyl]-2H-pyridazin-3-one] the IC50 (COX II) was 300 nM and the IC50 (COX I) was 23 µM.

For `CCc1ccc(C(=O)c2ccc(Cc3ccc(=O)[nH]n3)n2C)cc1` [Compound 46, 6-[5-(4-ethyl-benzoyl)-1-methyl-1H-pyrrol-2-ylmethyl]-2H-pyridazin-3-one], the IC50 (COX II) was 7200 nM and the IC50 (COX I) was > 100 µM.

`COc1ccc(C(=O)c2ccc(Cc3ccc(=O)[nH]n3)n2C)cc1` [Compound 53, 6-[5-(4-methoxy-benzoyl)-1-methyl-1H-pyrrol-2-ylmethyl]-2H-pyridazin-3-one] showed an IC50 (COX II) of 1000 nM and an IC50 (COX I) of 420 µM.

Work on `C=Cc1ccc(C(=O)c2ccc(Cc3ccc(=O)[nH]n3)n2C)cc1` [Compound 54, 6-[1-methyl-5-(4-vinyl-benzoyl)-1H-pyrrol-2-ylmethyl]-2H-pyridazin-3-one] yielded an IC50 (COX II) of 440 nM and an IC50 (COX I) of 190 µM.

`Cn1c(Cc2ccc(=O)[nH]n2)ccc1C(=O)c1ccc(Br)cc1` [Compound 57, 6-[5-(4-bromo-benzoyl)-1-methyl-1H-pyrrol-2-ylmethyl]-2H-pyridazin-3-one] was tested, and the IC50 (COX II) was 4600 nM and the IC50 (COX I) was 700 µM.

In the case of `Cn1c(Cc2ccc(=O)[nH]n2)ccc1C(=O)c1cccs1` [Compound 62, 6-[1-methyl-5-(thienyl-2-carbonyl)-1H-pyrrol-2-ylmethyl]-2H-pyridazin-3-one], the IC50 (COX II) is reported as 7000 nM and the IC50 (COX I) is reported as 140 µM.

With `Cc1ccc(C(=O)c2c(Cl)cc(Cc3ccc(=O)[nH]n3)n2C)cc1` [Compound 80, 6-[4-chloro-1-methyl-5-(4-methyl-benzoyl)-1H-pyrrol-2-ylmethyl]-2H-pyridazin-3-one] the IC50 (COX II) was 700 nM and the IC50 (COX I) was ≥ 1000 µM.

In the case of `Cn1c(Cc2ccc(=O)[nH]n2)cc(Cl)c1C(=O)c1ccc(Cl)cc1` [Compound 81, 6-[4-chloro-5-(4-chloro-benzoyl)-1-methyl-1H-pyrrol-2-ylmethyl]-2H-pyridazin-3-one], the IC50 (COX II) is reported as 440 nM and the IC50 (COX I) is reported as > 300 µM.

With `COc1ccc(C(=O)c2c(Cl)cc(Cc3ccc(=O)[nH]n3)n2C)cc1` [Compound 82, 6-[4-chloro-5-(4-methoxy-benzoyl)-1-methyl-1H-pyrrol-2-ylmethyl]-2H-pyridazin-3-one] the IC50 (COX II) was 810 nM and the IC50 (COX I) was 20.6 µM.

With `Cc1ccc(C(=O)c2cc(Cl)c(Cc3ccc(=O)[nH]n3)n2C)cc1` [Compound 87, 6-[3-chloro-1-methyl-5-(4-methyl-benzoyl)-1H-pyrrol-2-ylmethyl]-2H-pyridazin-3-one] the IC50 (COX II) was 900 nM and the IC50 (COX I) was > 1000 µM.

`COc1ccc(C(=O)c2cc(Cl)c(Cc3ccc(=O)[nH]n3)n2C)cc1` [Compound 88, 6-[3-chloro-5-(4-methoxy-benzoyl)-1-methyl-1H-pyrrol-2-ylmethyl]-2H-pyridazin-3-one] showed an IC50 (COX II) of 550 nM and an IC50 (COX I) of 100 µM.

Compound `Cc1ccc(C(=O)c2ccc(C(C)c3ccc(=O)[nH]n3)n2C)cc1` (stereo not shown) [Compound 95, 6-{1-[1-methyl-5-(4-methyl-benzoyl)-1H-pyrrol-2-yl]-ethyl}-2H-pyridazin-3-one] has an IC50 (COX II) of 1300 nM and an IC50 (COX I) of 140 µM.

In the case of `Cc1ccc(C(=O)c2ccc(Cc3ccc(=O)[nH]n3)n2C)cc1` [Compound 100, 6-[1-methyl-5-(4-methyl-benzoyl)-1H-pyrrol-2-ylmethyl]-2H-pyridazin-3-one], the IC50 (COX II) is reported as 1500 nM and the IC50 (COX I) is reported as 300 µM.

`Cc1ccc(C(=O)c2ccc(CC3=NNC(=O)CC3)n2C)cc1` [Compound 102, 6-[1-methyl-5-(4-methyl-benzoyl)-1H-pyrrol-2-ylmethyl]-4,5-dihydro-2H-pyridazin-3-one] was tested, and the IC50 (COX II) was 3100 nM and the IC50 (COX I) was 260 µM.

`CSc1cc(Cc2ccc(=O)[nH]n2)n(C)c1C(=O)c1ccc(C)cc1` [Compound 107, 6-(1-methyl-5-(4-methyl-benzoyl)-4-methylthio-1H-pyrrol-2-ylmethyl)-2H-pyridazin-3-one] gave an IC50 (COX II) of 2300 nM and an IC50 (COX I) of 21 µM.

Work on `CC(=O)n1nc(Cc2cc(C)c(C(=O)c3ccc(Cl)cc3)n2C)ccc1=O` [Compound 114, 2-acetyl-6-[5-(4-chloro-benzoyl)-1,4,-dimethyl-1H-pyrrol-2-ylmethyl]-2H-pyridazin-3-one] yielded an IC50 (COX II) of 660 nM and an IC50 (COX I) of 82 µM.

`COC(=O)Cn1nc(Cc2cc(C)c(C(=O)c3ccc(Cl)cc3)n2C)ccc1=O` [Compound 116, {3-[5-(4-chloro-benzoyl)-1,4,-dimethyl-1H-pyrrol-2-ylmethyl]-6-oxo-6H-pyridazin-1-yl}-acetic acid methyl ester] showed an IC50 (COX II) of 180 nM and an IC50 (COX I) of 0.92 µM.
